For one data set, the system named is REN 50 cells. Nature of the data set: Effectiveness experiment: REN 50 renal tumors implanted in mice (tumor volume/weight, CD31 vascular density, necrosis). The format is in vivo. The settings on record: for vascular density / tumor vasculature (anti-CD31 immunohistochemistry) / tumor weight and volume / percentage of necrosis: REN 50 tumors; for vascular density / tumor vasculature (anti-CD31 immunohistochemistry) / percentage of necrosis: compared to the control group; for vascular density / tumor vasculature (anti-CD31 immunohistochemistry): Figures 5 and 6; for tumor weight and volume: continuous administration; for percentage of necrosis: hematoxylin-eosin sections, Figure 7. The protocol:
An effectiveness experiment was performed according to the following scheme: tumors of about 2 mm^3 size were implanted in mice, and the tumors were allowed to develop for 20 days (to a size of about 750 mm^3). The time from tumor development to death was measured as the anti-angiogenic response.
7 mice were implanted per treatment group. REN 50 cells were implanted. Treatment started when mice developed tumors with a volume tumor of about 750 mm^3, and lasted for three weeks. Table 2. Treatment groups
The inventors then analyzed whether these inhibitors produced any effect at the level of tumor vasculature by conducting in immunohistochemistry, using an anti-CD31 antibody as a marker of endothelial cells.
Hematoxylin-eosin stained paraffin sections of tumors obtained from mice from the different treatment groups were analyzed in order to evaluate the degree of necrosis.

The subject of the next data set is primary tumor REN 28. Nature of the data set: Long-term survival / anti-angiogenic resistance experiment: tumors from primary tumor REN 28 in mice. Format: in vivo. The text has this:
The inventors assessed next the effect of therapy with PD-ECGF inhibitors in a long term survival experiment, wherein the tumors are able to regrow (resistance) and wherein PD-ECGF overexpression has been observed.
A survival experiment was followed, wherein the drugs previously tested on the primary tumor from REN 28 were continuously administered. This tumor line was selected because the inventors this tumor is able to generate an anti-angiogenic resistance phenotype with after treatment with bevacizumab and DC101.
Again, tumors of about 2 mm^3 size were implanted in mice, and the tumors were allowed to develop for 30 days (with a size of about 1,000 mm^3). The time from tumor development to death was measured as the anti-angiogenic resistance.
Tumors were measured and weighted; samples were collected for further processing. Treatments were stopped or changed on day 15. Table 3. Treatment groups.
Several treatment strategies were followed in anti-VEGFR2 resistant tumors: • 1. stop the anti-VEGFR2 (DC101) treatment just when the tumors begin to becomes resistant, and verify if said tumors are able to regrow with or without vasculature (represented as "DC101→R→OFF" treatment group), • 2. change the VEGFR2 inhibition therapy by the inhibition of another pathway (PD-ECGF) (represented as "DC101→R→AEAC" treatment group), • 3. combine the VEGFR2-inhibition therapy (DC101) and the PD-ECGF-inhibition therapy ([…]) (represented as "DC101→R→DC101 1 + AEAC" treatment group).

Where [1] appears, read: AEAC added to DC101 after development of resistance (DC101→R→DC101 + AEAC).
The mark [2] stands for this setting: therapy changed from DC101 to AEAC at onset of resistance (DC101→R→AEAC).

Entries after “also recorded” stand apart in the source; their conditions may differ.

Consider `NCCNc1[nH]c(=O)[nH]c(=O)c1Cl` [AEAC, 6-(2-aminoethyl)amino-5-chlorouracil], for which, in the data set on REN 50 cells, the “vascular density / tumor vasculature (anti-CD31 immunohistochemistry)” value was “decreased tumor vasculature”; the “tumor weight and volume” value is “decreased tumor weight and volume”; the percentage of necrosis entry is reported as “increased tumor necrosis”. The “number of vessels (labeled with anti-CD31 antibody)” value in the data set on REN 50 cells (after 21 days of treatment, Figure 6) is “decrease in the number of vessels”. In the data set on primary tumor REN 28 (setting [1]), the “number of vessels / vascular density” value was “decreased vascular density”, the toxicity to animals entry is listed as “toxic” and the “tumor size / tumor volume” value is listed as “small tumoral volume; also recorded: sustained effect on tumor volume reduction”. In addition, in the data set with primary tumor REN 28 (REN 28, continuous treatment, compared to control mice, Figure 8), the “average and total survival” value was “increased average and total survival”. In the data set on primary tumor REN 28 (setting [2]), the survival result is “increased survival” and the “time of tumor progression” value is recorded as “delayed the time of tumor progression”.
With `Oc1ncnc2c1ncn2[C@@H]1O[C@H](COC(c2ccccc2)(c2ccccc2)c2ccccc2)[C@@H](O)[C@H]1O` [KIN 59, 5'-O-trityl-inosine], in the data set on REN 50 cells, the “vascular density / tumor vasculature (anti-CD31 immunohistochemistry)” value is “decreased tumor vasculature”; the “tumor weight and volume” value is “decreased tumor weight and volume”; the percentage of necrosis result was “increased tumor necrosis”. The “number of vessels (labeled with anti-CD31 antibody)” value with REN 50 cells (after 15 days of treatment, Figure 5) is given as “decrease in the number of vessels”.

The values above are taken from EP3067369A1, “Methods and compositions for the treatment of anti-angiogenic resistant cancer” (Institut d'Investigació Biomèdica de Bellvitge (IDIBELL), priority 2015, dated 2016).
